# Measured values: ChEMBL document CHEMBL5360614, “Quinoline Thiourea-Based Zinc Ionophores with Antibacterial Activity” (J Med Chem, 2023)
# The source made the active and inactive calls. The rule behind the calls is not given here.
# Assays:
# [1] = test system: Staphylococcus aureus; experiment: In vivo antibacterial activity against Staphylococcus aureus MTCC-96 infected in Balb/c mouse assessed as bacterial load by measuring CFU in liver at 523.455 microM/Kg, iv for 7 days by CFU assay (Rvb= 719 CFU); assay type: functional, organism-based; details: time 7.0 day
# [2] = test system: Staphylococcus aureus; experiment: In vivo antibacterial activity against Staphylococcus aureus MTCC-96 infected in Balb/c mouse assessed as liver central vein with minimum infiltration at 523.455 microM/Kg, iv for 7 days by hematoxylin and eosin staining based microscopic analysis; assay type: functional, organism-based; details: time 7.0 day
# [3] = test system: Staphylococcus aureus; experiment: In vivo antibacterial activity against Staphylococcus aureus MTCC-96 infected in Balb/c mouse assessed as less dilated hepatic artery at 523.455 microM/Kg, iv for 7 days by hematoxylin and eosin staining based microscopic analysis; assay type: functional, organism-based; details: time 7.0 day
# [4] = test system: Staphylococcus aureus; experiment: In vivo antibacterial activity against Staphylococcus aureus MTCC-96 infected in Balb/c mouse assessed as less dilated portal vein in liver at 523.455 microM/Kg, iv for 7 days by hematoxylin and eosin staining based microscopic analysis; assay type: functional, organism-based; details: time 7.0 day
# [5] = test system: Staphylococcus aureus; experiment: In vivo antibacterial activity against Staphylococcus aureus MTCC-96 infected in Balb/c mouse assessed as hepatocyte distribution at 523.455 microM/Kg, iv for 7 days by hematoxylin and eosin staining based microscopic analysis; assay type: functional, organism-based; details: time 7.0 day
# [6] = test system: Staphylococcus aureus; experiment: Antibacterial activity against Staphylococcus aureus MTCC-96 assessed as reduction in bacterial growth incubated for 14 to 16 hrs by microbroth dilution method; assay type: functional; details: time 14-16 hrs
# [7] = test system: Staphylococcus aureus; experiment: (§1) Antibacterial activity against gentamicin-and methicillin-resistant Staphylococcus aureus ATCC 33592 assessed as reduction in bacterial growth incubated for 14 to 16 hrs by microbroth dilution method; assay type: functional; details: time 14-16 hrs
# [8] = test system: Staphylococcus aureus; experiment: Disruption of membrane integrity in Staphylococcus aureus MTCC-96 assessed as increase in fluorescence intensity by PI staining based fluorescence analysis; assay type: functional, organism-based
# [9] = test system: Escherichia coli; experiment: Antibacterial activity against Escherichia coli MTCC 1687 assessed as reduction in bacterial growth incubated for 14 to 16 hrs by microbroth dilution method; assay type: functional; details: time 14-16 hrs
# [10] = test system: Staphylococcus aureus; experiment: as §1, with “hrs in presence of 2 uM 1-(2-(1H-benzo[d]imidazol-1-yl)quinolin-8-yl)-3-(3,5-bis(trifluoromethyl)phenyl)thiourea and 50 uM ZnCl2” for “hrs”; assay type: functional; details: time 14-16 hrs
# [11] = test system: Staphylococcus aureus; experiment: as §1, with “hrs in presence of 1 uM 1-(2-(1H-benzo[d]imidazol-1-yl)quinolin-8-yl)-3-(3,5-bis(trifluoromethyl)phenyl)thiourea” for “hrs”; assay type: functional; details: time 14-16 hrs
# [12] = test system: Staphylococcus aureus; experiment: as §1, with “hrs in presence of 1 uM 1-(2-(1H-benzo[d]imidazol-1-yl)quinolin-8-yl)-3-(3,5-bis(trifluoromethyl)phenyl)thiourea and 100 uM ZnCl2” for “hrs”; assay type: functional; details: time 14-16 hrs
# [13] = test system: Staphylococcus aureus; experiment: Potency index, ratio of compound MIC to compound MIC in presence of 1 uM 1-(2-(1H-benzo[d]imidazol-1-yl)quinolin-8-yl)-3-(3,5-bis(trifluoromethyl)phenyl)thiourea and 200 uM ZnCl2 for antibacterial activity against gentamicin-and methicillin-resistant Staphylococcus aureus ATCC 33592; assay type: functional
# [14] = test system: Staphylococcus aureus; experiment: (§2) Antibacterial activity against gentamicin-and methicillin-resistant Staphylococcus aureus ATCC 33592 assessed as reduction in bacterial growth incubated for 14 to 16 hrs in presence of 100 uM ZnCl2 by microbroth dilution method; assay type: functional; details: time 14-16 hrs
# [15] = test system: Staphylococcus aureus; experiment: as §2, with “1 uM 1-(2-(1H-benzo[d]imidazol-1-yl)quinolin-8-yl)-3-(3,5-bis(trifluoromethyl)phenyl)thiourea and 50” for “100”; assay type: functional; details: time 14-16 hrs
# [16] = test system: Staphylococcus aureus; experiment: (§3) Antibacterial activity against gentamicin-and methicillin-resistant Staphylococcus aureus ATCC 33592 assessed as reduction in bacterial growth incubated for 14 to 16 hrs in presence of 200 uM ZnCl2 by microbroth dilution method; assay type: functional; details: time 14-16 hrs
# [17] = test system: Staphylococcus aureus; experiment: as §3, with “of 1 uM 1-(2-(1H-benzo[d]imidazol-1-yl)quinolin-8-yl)-3-(3,5-bis(trifluoromethyl)phenyl)thiourea and” for “of”; assay type: functional; details: time 14-16 hrs
# [18] = test system: Cell membrane; experiment: Induction of cell membrane depolarization in Staphylococcus aureus MTCC-96 assessed as increase in fluorescence intensity at 30 uM by DiSC3-5 dye based fluorescence method; assay type: subcellular; details: filed as opener
compound,measurement,setting,value
GENTAMICIN,Activity,[1],62 CFU
same,Activity,[2],Active
same,Activity,[3],Active
same,Activity,[4],Active
same,Activity,[5],Active
O=C(O)c1cn(C2CC2)c2cc(N3CCNCC3)c(F)cc2c1=O [CIPROFLOXACIN],MIC,[6],0.45 µM
same,MIC,[7],1.5 µM
same,Activity,[8],inactive
same,MIC,[9],0.51 µM
CC1(C)S[C@@H]2[C@H](NC(=O)[C@H](N)c3ccccc3)C(=O)N2[C@H]1C(=O)O [AMPICILLIN],MIC,[10],0.03 µM
same,MIC,[11],2.1 µM
same,MIC,[12],0.03 µM
same,Ratio,[13],4466
same,MIC,[14],134 µM
same,MIC,[7],134 µM
same,MIC,[15],2 µM
same,MIC,[16],134 µM
same,MIC,[17],0.03 µM
CC(C)[C@@H]1NC(=O)[C@H](C)OC(=O)[C@@H](C(C)C)NC(=O)[C@@H](C(C)C)OC(=O)[C@H](C(C)C)NC(=O)[C@H](C)OC(=O)[C@@H](C(C)C)NC(=O)[C@@H](C(C)C)OC(=O)[C@H](C(C)C)NC(=O)[C@H](C)OC(=O)[C@@H](C(C)C)NC(=O)[C@@H](C(C)C)OC1=O,Activity,[18],Active
